Measured values as given in ChEMBL document CHEMBL4808219, “Exploration of Benzo[b]carbazole-6,11-diones as anticancer agents: Synthesis and studies of hTopoIIα inhibition and apoptotic effects” (Bioorg Med Chem Lett, 2021).
Active and inactive are the calls of the source. No cut-off for these calls is given here.

Experiments:
[1] = tested on: MDA-MB-231; assay: Cytotoxicity against human MDA-MB-231 cells assessed as reduction in cell survival by clonogenic assay; assay type: functional, cell-based
[2] = tested on: MDA-MB-231; assay: Cytotoxicity against human MDA-MB-231 cells assessed as normal nuclei at 1 uM by DAPI staining based fluorescence microscopic analysis (reference value: 85.71 to 95.83%); assay type: functional
[3] = tested on: MDA-MB-231; assay: Cytotoxicity against human MDA-MB-231 cells assessed as reduction in cell viability incubated for 48 hrs by MTT assay; assay type: functional, cell-based; details: Homo sapiens, MDA-MB-231, 48 h; read-out: IC50
[4] = tested on: MDA-MB-231; assay: Cell cycle arrest in human MDA-MB-231 cells assessed as accumulation at sub G1 phase at IC50 measured after 48 hrs by propidium iodide staining based FACS analysis (reference value: 0.7+/-0.2 %); assay type: functional
[5] = Cytotoxicity against human H357 cells assessed as reduction in cell viability incubated for 48 hrs by MTT assay; assay type: functional, cell-based; details: Homo sapiens, H357, 48 h; read-out: IC50
[6] = tested on: MDA-MB-231; assay: Induction of apoptosis in human MDA-MB-231 cells assessed as late apoptotic cells at IC50 by Annexin V/FITC-propidium iodide staining-based flow cytometric method (reference value: 1.2 +/- 0.3 %); assay type: functional
[7] = Downregulation of cyclinB1 protein expression in human MDA-MB-231cells assessed as fold change in cyclin B1 expression at IC50 after 48 hrs by Western blot analysis relative to control; assay type: functional
[8] = Downregulation of Cdc25A protein expression in human MDA-MB-231cells assessed as fold change in Cdc25A expression at IC50 after 48 hrs by Western blot analysis relative to control; assay type: functional
[9] = tested on: MDA-MB-231; assay: Cytotoxicity against human MDA-MB-231 cells assessed as apoptotic nuclei at 1 uM by DAPI staining based fluorescence microscopic analysis (reference value: 4.17 to 14.29%); assay type: functional
[10] = tested on: MDA-MB-231; assay: Induction of apoptosis in human MDA-MB-231 cells assessed as necrotic cells at IC50 by Annexin V/FITC-propidium iodide staining-based flow cytometric method (reference value: 4.5 +/- 0.5 %); assay type: functional
[11] = tested on: MDA-MB-231; assay: Cytotoxicity against human MDA-MB-231 cells assessed as increase in deformation and shrinkage of nuclei by DAPI staining-based fluorescence microscopic analysis; assay type: functional, cell-based; details: dose 0.5-2.5 µM
[12] = tested on: MCF7; assay: Cytotoxicity against human MCF7 cells assessed as reduction in cell viability incubated for 48 hrs by MTT assay; assay type: functional, cell-based; details: Homo sapiens, MCF7, 48 h; read-out: IC50
[13] = tested on: MDA-MB-231; assay: Cytotoxicity against human MDA-MB-231 cells assessed as apoptotic nuclei at 1.5 uM by DAPI staining based fluorescence microscopic analysis (reference value: 11.11 to 14.29%); assay type: functional
[14] = Upregulation of cyclinD1 protein expression in human MDA-MB-231cells assessed as fold change in cyclin D1 expression at IC50 after 48 hrs by Western blot analysis relative to control; assay type: functional
[15] = tested on: MDA-MB-231; assay: Cytotoxicity against human MDA-MB-231 cells assessed as normal nuclei at 2 uM by DAPI staining based fluorescence microscopic analysis (reference value: 85.71 to 95.83%); assay type: functional
[16] = Upregulation of p21 protein expression in human MDA-MB-231cells assessed as fold change in p21 expression at IC50 after 48 hrs by Western blot analysis relative to control; assay type: functional
[17] = tested on: MDA-MB-231; assay: Cytotoxicity against human MDA-MB-231 cells assessed as normal nuclei at 1.5 uM by DAPI staining based fluorescence microscopic analysis (reference value: 85.71 to 88.89%); assay type: functional
[18] = tested on: MCF-10A; assay: Cytotoxicity against human MCF-10A cells; assay type: cell-based
[19] = tested on: MDA-MB-231; assay: Cytotoxicity against human MDA-MB-231 cells assessed as apoptotic nuclei at 2.5 uM by DAPI staining based fluorescence microscopic analysis (reference value: 11.11 to 14.29%); assay type: functional
[20] = Downregulation of CDC6 protein expression in human MDA-MB-231cells assessed as fold change in CDC6 expression at IC50 after 48 hrs by Western blot analysis relative to control; assay type: functional
[21] = tested on: MDA-MB-231; assay: Genotoxicity in human MDA-MB-231 cells assessed as induction of DNA damage at 2 uM incubated for 24 hrs by comet assay; assay type: functional, cell-based
[22] = tested on: MDA-MB-231; assay: Cytotoxicity against human MDA-MB-231 cells assessed as apoptotic nuclei at 0.5 uM by DAPI staining based fluorescence microscopic analysis (reference value: 11.11 to 14.29%); assay type: functional
[23] = tested on: MDA-MB-231; assay: Induction of apoptosis in human MDA-MB-231cells as increase in cleaved PARP1 level by measuring fold change in cleaved PARP1 expression by Western blot analysis relative to control; assay type: functional
[24] = tested on: MDA-MB-231; assay: Cell cycle arrest in human MDA-MB-231 cells assessed as accumulation at S phase at IC50 measured after 48 hrs by propidium iodide staining based FACS analysis (reference value: 9.2+/-0.3 %); assay type: functional
[25] = tested on: MDA-MB-231; assay: Cytotoxicity against human MDA-MB-231 cells assessed as apoptotic nuclei at 2 uM by DAPI staining based fluorescence microscopic analysis (reference value: 4.17 to 14.29%); assay type: functional
[26] = tested on: MDA-MB-231; assay: Cytotoxicity against human MDA-MB-231 cells assessed as normal nuclei at 0.5 uM by DAPI staining based fluorescence microscopic analysis (reference value: 85.71 to 88.89%); assay type: functional
[27] = tested on: MDA-MB-231; assay: Cell cycle arrest in human MDA-MB-231 cells assessed as accumulation at G2/M phase at IC50 measured after 48 hrs by propidium iodide staining based FACS analysis (reference value: 30.8+/-1.6 %); assay type: functional
[28] = tested on: MDA-MB-231; assay: Cytotoxicity against human MDA-MB-231 cells assessed as normal nuclei at 2.5 uM by DAPI staining based fluorescence microscopic analysis (reference value: 85.71 to 88.89%); assay type: functional
[29] = Downregulation of NFkappaB protein expression in human MDA-MB-231cells assessed as fold change in NF-kB expression at IC50 after 48 hrs by Western blot analysis relative to control; assay type: functional
[30] = tested on: HEK-293T; assay: Cytotoxicity against human HEK293T cells assessed as reduction in cell viability incubated for 48 hrs by MTT assay; assay type: cell-based
[31] = Upregulation of p53 protein expression in human MDA-MB-231cells assessed as fold change in p53 expression at IC50 after 48 hrs by Western blot analysis relative to control; assay type: functional
[32] = tested on: MDA-MB-231; assay: Induction of apoptosis in human MDA-MB-231 cells assessed as upregulation of Bax level by measuring fold change in Bax expression by Western blot analysis relative to control; assay type: functional
[33] = tested on: MDA-MB-231; assay: Induction of apoptosis in human MDA-MB-231 cells assessed as viable cells at IC50 by Annexin V/FITC-propidium iodide staining-based flow cytometric method (reference value: 87.2 +/- 0.7 %); assay type: functional
[34] = tested on: MDA-MB-231; assay: Induction of apoptosis in human MDA-MB-231 cells assessed as early apoptotic cells at IC50 by Annexin V/FITC-propidium iodide staining-based flow cytometric method (reference value: 7.1 +/- 0.4 %); assay type: functional
[35] = tested on: MDA-MB-231; assay: Cell cycle arrest in human MDA-MB-231 cells assessed as accumulation at G1 phase at IC50 measured after 48 hrs by propidium iodide staining based FACS analysis (reference value: 59.3+/-2.9 %); assay type: functional
[36] = tested on: MDA-MB-231; assay: Induction of apoptosis in human MDA-MB-231cells assessed as downregulation of Bcl-xl level by measuring fold change in Bcl-xl expression by Western blot analysis relative to control; assay type: functional
[37] = tested on: MDA-MB-231; assay: Cytotoxicity against human MDA-MB-231 cells assessed as apoptotic nuclei at 5 uM by DAPI staining based fluorescence microscopic analysis (reference value: 4.17 to 6.67%); assay type: functional
[38] = tested on: MDA-MB-231; assay: Genotoxicity in human MDA-MB-231 cells assessed as induction of DNA damage at 3 uM incubated for 24 hrs by comet assay; assay type: functional, cell-based
[39] = tested on: MDA-MB-231; assay: Cytotoxicity against human MDA-MB-231 cells assessed as apoptotic nuclei at 3 uM by DAPI staining based fluorescence microscopic analysis (reference value: 4.17 to 6.67%); assay type: functional
[40] = tested on: MDA-MB-231; assay: Cytotoxicity against human MDA-MB-231 cells assessed as normal nuclei at 5 uM by DAPI staining based fluorescence microscopic analysis (reference value: 93.33 to 95.83%); assay type: functional
[41] = tested on: MDA-MB-231; assay: Cytotoxicity against human MDA-MB-231 cells assessed as normal nuclei at 4 uM by DAPI staining based fluorescence microscopic analysis (reference value: 93.33 to 95.83%); assay type: functional
[42] = tested on: MDA-MB-231; assay: Cytotoxicity against human MDA-MB-231 cells assessed as apoptotic nuclei at 4 uM by DAPI staining based fluorescence microscopic analysis (reference value: 4.17 to 6.67%); assay type: functional
[43] = tested on: MDA-MB-231; assay: Cytotoxicity against human MDA-MB-231 cells assessed as normal nuclei at 3 uM by DAPI staining based fluorescence microscopic analysis (reference value: 93.33 to 95.83%); assay type: functional

Compound | IC50 [1] | Activity [2] | IC50 [3] | Activity [4] | IC50 [5] | Activity [6] | fold change (FC) [7] | fold change (FC) [8] | Activity [9] | Activity [10] | Activity [11] | IC50 [12] | Activity [13] | Activity [15] | IC50 [18] | fold change (FC) [23] | Activity [25] | IC50 [30] | fold change (FC) [32] | fold change (FC) [36] | further results
CN(C1=CC(=O)c2ccccc2C1=O)c1ccccc1 | 1200 nM | 72.22% | 2000 nM | 7.9% | 2000 nM | 4.8% | 0.4 | 0.3 | 27.78% | 20.7% | Dose-Dependent Effect | 1500 nM | 30.77% | 43.59% | 86 µM | 0.9 | 56.41% | 3.5 µM | 2.5 | 0.8 | fold change (FC) [14]: 1.5; fold change (FC) [16]: 2.3; Activity [17]: 69.23%; Activity [19]: 78.57%; fold change (FC) [20]: 0.5; Activity [21]: Active; Activity [22]: 16.67%; Activity [24]: 27.1%; Activity [26]: 83.33%; Activity [27]: 24.6%; Activity [28]: 21.43%; fold change (FC) [29]: 0.7; fold change (FC) [31]: 2.5; Activity [33]: 52.2%; Activity [34]: 22.3%; Activity [35]: 40.4%
COc1cccc(NC2=CC(=O)c3ccccc3C2=O)c1 | 1500 nM | 63.89% | 2100 nM | 11.8% | 2100 nM | 5.3% | 0.3 | 0.4 | 36.11% | 18.5% | Dose-Dependent Effect | 2000 nM | 48.72% | 45.45% | 90 µM | 0.3 | 54.55% | 4.5 µM | 1.6 | 0.6 | fold change (FC) [14]: 1.8; fold change (FC) [16]: 2.1; Activity [17]: 51.28%; Activity [19]: 80.95%; fold change (FC) [20]: 0.4; Activity [21]: Active; Activity [22]: 17.95%; Activity [24]: 20.2%; Activity [26]: 82.05%; Activity [27]: 23.3%; Activity [28]: 19.05%; fold change (FC) [29]: 0.7; fold change (FC) [31]: 2.1; Activity [33]: 50.1%; Activity [34]: 26.1%; Activity [35]: 44.7%
O=C1c2cccc(O)c2C(=O)c2c1[nH]c1ccccc21 | 2700 nM | 74.07% | 3200 nM | – | 3600 nM | – | – | – | 25.93% | – | Dose-Dependent Effect | 3000 nM | – | 63.64% | 105 µM | 1 | 36.36% | 4 µM | 2.2 | 0.2 | Activity [37]: 73.33%; Activity [38]: Active; Activity [39]: 48.48%; Activity [40]: 26.67%; Activity [41]: 44.44%; Activity [42]: 55.56%; Activity [43]: 51.52%
O=C1C=C(Nc2cccc3ccccc23)C(=O)c2ccccc21 | 2400 nM | 88.1% | 3200 nM | – | 5800 nM | – | – | – | 11.9% | – | Dose-Dependent Effect | 3100 nM | – | 71.43% | 101 µM | 0.8 | 28.57% | 5.6 µM | 2.3 | 0.4 | Activity [37]: 88.89%; Activity [38]: Active; Activity [39]: 55.56%; Activity [40]: 11.11%; Activity [41]: 25.64%; Activity [42]: 74.36%; Activity [43]: 44.44%
